How the values were obtained:
[1] = biological target: T1, Ba/F3 cell EGFR Exon20 ins FQEA (Homo sapiens, UniProt P00533, INS763FQEA); test: Ba/F3 cell proliferation suppression, EGFR Exon20 ins FQEA; assay type: cell-based; conditions: 72 hours after treatment, CellTiter-Glo
T1 construct: expressed in transfected cells; host or cells: Ba/F3
Description: (§1) The following experiment was carried out to evaluate the suppression activity of the compounds according to the present invention against proliferation of Ba/F3 and lung cancer cells which express EGFR mutations.
(§2) Of the cancer cell lines expressing the EGFR gene, A549 was cultured after adding 10% FBS (HyClone) to DMEM (Invitrogen), and RPMI-1640 (Invitrogen) with 10% FBS was used for the other cancer cells. For the Ba/F3 cells, RPMI-1640 with 10% FBS and 5 ng/ml IL-3 (R&D Systems) was used. The transduced Ba/F3 cells were cultured by adding 1 ug/ml puromycin (Invitrogen) to the same medium.
(§3) 24 hours before treatment with the compounds, 3000 to 5000 cells were distributed into each well of a white clear bottom 96 well plate (Corning). The compounds were diluted in dimethylsulfoxide (dilution ratio 3:1; 12 concentrations total) and injected 0.5 ul each for a final concentration of 0.3 nM to 50 um. As for measurement of live cells, 72 hours after treatment with the compounds, a CellTiter-Glo luminescent cell-viability reagent (Promega) was used to store the cells at room temperature for 10 minutes, followed by measurement of luminescence using a reader (SynergyNeo, Biotek). Each test was repeated three times.
(§4) The result was calculated as a cell growth ratio (%) compared to a control. The program GraphPad Prism version 5.0 was used to draw the graphs and calculate the GI50 values.

[2] = biological target: T2, Ba/F3 cell EGFR Exon20 ins SVD (Homo sapiens, UniProt P00533, INS770SVD); test: Ba/F3 cell proliferation suppression, EGFR Exon20 ins SVD; assay type: cell-based; conditions: 72 hours after treatment, CellTiter-Glo
T2 construct: expressed in transfected cells; host or cells: Ba/F3
Description: as §1, §2, §3, §4

[3] = system: scanMAX kinase panel (EGFR mutant, ERBB2, ERBB4); test: DiscoverX (eurofin) KINOMEscan (scanMAX platform) kinase profiling; assay type: binding; conditions: for suppression activity against the EGFR mutant and ERBB2 and ERBB4: KINOMEscan scanMAX kinase profiling
Excerpt: It was confirmed that the above example compounds had high selectivity against EGFR series genes. Accordingly, these can be useful in the treating of cancers wherein this kinase is expressed. In particular, as they have substantially outstanding lung cancer cell line proliferation suppression, they can be useful in the treatment of lung cancer, breast cancer, and brain cancer.

[4] = biological target: T3, Ba/F3 cell EGFR Exon20 ins ASV (Homo sapiens, UniProt P00533, INS769ASV); test: Ba/F3 cell proliferation suppression, EGFR Exon20 ins ASV; assay type: cell-based; conditions: 72 hours after treatment, CellTiter-Glo
T3 construct: expressed in transfected cells; host or cells: Ba/F3
Description: as §1, §2, §3, §4

H1975 = test: Lung cancer cell proliferation suppression, H1975; assay type: cell-based; conditions: Homo sapiens, NCI-H1975; 72 hours after treatment, CellTiter-Glo
Description: as §1, §2, §3, §4

PC9GR = test: Lung cancer cell proliferation suppression, PC9GR; assay type: cell-based; conditions: 72 hours after treatment, CellTiter-Glo
Description: as §1, §2, §3, §4

PC9 = test: Lung cancer cell proliferation suppression, PC9; assay type: cell-based; conditions: Homo sapiens, PC-9; 72 hours after treatment, CellTiter-Glo
Description: as §1, §2, §3, §4

[5] = biological target: T4, Ba/F3 cell EGFR Exon20 ins NPH (Homo sapiens, UniProt P00533, INS773NPH); test: Ba/F3 cell proliferation suppression, EGFR Exon20 ins NPH; assay type: cell-based; conditions: for GI50: 72 hours after treatment, CellTiter-Glo; for Ba/F3 (NPH) Activity: GI50 class, Ba/F3 cell line with NPH inserted at Exon20 of EGFR, 72 hours
T4 construct: expressed in transfected cells; host or cells: Ba/F3
Procedure, shortened: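 After 72 h compound exposure (twelve 3-fold steps, 0.3 nM–50 um final), live cells were measured by CellTiter-Glo luminescence and growth expressed as % of control to derive GI50. Cells were seeded at 3000–5000 per well a day earlier; Ba/F3 medium contained IL-3; three repeats.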

[6] = system: Ba/F3 cell EGFR Del19/T790M; test: Ba/F3 cell proliferation suppression, EGFR Del19/T790M; assay type: cell-based; conditions: 72 hours after treatment, CellTiter-Glo
Description: as §1, §2, §3, §4

Ba/F3 cell naive = test: Ba/F3 cell proliferation suppression, naive; assay type: cell-based; conditions: Mus musculus, BaF3; 72 hours after treatment, CellTiter-Glo
Description: as §1, §2, §3, §4

Ba/F3 cell EGFR L858R = biological target: T5, Ba/F3 cell EGFR L858R (Homo sapiens, UniProt P00533, L858R); test: Ba/F3 cell proliferation suppression, EGFR L858R; assay type: cell-based; conditions: 72 hours after treatment, CellTiter-Glo
T5 construct: expressed in transfected cells; host or cells: Ba/F3
Description: as §1, §2, §3, §4

[7] = biological target: T6, Ba/F3 cell HER2 Exon20 ins YVMA (Homo sapiens, UniProt P04626, INS775YVMA); test: Ba/F3 cell proliferation suppression, HER2 Exon20 ins YVMA; assay type: cell-based; conditions: 72 hours after treatment, CellTiter-Glo
T6 construct: expressed in transfected cells; host or cells: Ba/F3
T6 sequence (P04626 with tags, fused parts or gaps INS775YVMA): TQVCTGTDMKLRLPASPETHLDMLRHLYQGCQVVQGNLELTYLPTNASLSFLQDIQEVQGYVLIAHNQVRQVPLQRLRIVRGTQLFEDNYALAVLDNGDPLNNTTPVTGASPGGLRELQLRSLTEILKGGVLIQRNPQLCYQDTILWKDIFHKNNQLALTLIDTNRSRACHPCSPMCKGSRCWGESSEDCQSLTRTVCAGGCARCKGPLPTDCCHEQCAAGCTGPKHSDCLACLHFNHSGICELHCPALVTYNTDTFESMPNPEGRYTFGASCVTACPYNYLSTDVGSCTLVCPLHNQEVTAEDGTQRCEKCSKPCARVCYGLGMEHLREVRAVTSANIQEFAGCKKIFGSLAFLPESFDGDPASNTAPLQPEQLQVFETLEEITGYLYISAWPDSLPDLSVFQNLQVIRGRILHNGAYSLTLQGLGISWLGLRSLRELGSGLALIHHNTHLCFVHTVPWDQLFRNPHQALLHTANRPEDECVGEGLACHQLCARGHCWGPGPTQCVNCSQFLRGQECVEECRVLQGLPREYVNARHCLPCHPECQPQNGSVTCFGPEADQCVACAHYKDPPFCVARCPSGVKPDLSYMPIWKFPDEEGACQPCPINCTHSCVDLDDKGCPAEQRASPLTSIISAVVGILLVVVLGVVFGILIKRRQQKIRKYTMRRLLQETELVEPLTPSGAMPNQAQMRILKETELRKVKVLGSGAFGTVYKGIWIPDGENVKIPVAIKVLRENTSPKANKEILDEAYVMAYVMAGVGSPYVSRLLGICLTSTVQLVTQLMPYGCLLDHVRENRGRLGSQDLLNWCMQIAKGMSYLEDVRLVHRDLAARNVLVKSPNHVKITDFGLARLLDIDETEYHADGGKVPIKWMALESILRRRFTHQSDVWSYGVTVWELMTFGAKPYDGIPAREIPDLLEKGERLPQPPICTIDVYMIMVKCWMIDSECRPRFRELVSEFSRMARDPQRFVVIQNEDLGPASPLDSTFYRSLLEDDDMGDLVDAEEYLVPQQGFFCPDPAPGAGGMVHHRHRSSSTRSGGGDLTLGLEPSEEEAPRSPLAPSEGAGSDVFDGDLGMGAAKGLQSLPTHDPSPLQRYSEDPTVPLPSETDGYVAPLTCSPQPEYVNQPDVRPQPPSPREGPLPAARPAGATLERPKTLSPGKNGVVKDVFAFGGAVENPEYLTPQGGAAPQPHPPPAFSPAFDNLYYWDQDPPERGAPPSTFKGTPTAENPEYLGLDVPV
Description: as §1, §2, §3, §4

[8] = biological target: T7, Ba/F3 cell EGFR L858R/T790M (Homo sapiens, UniProt P00533, L858R/T790M); test: Ba/F3 cell proliferation suppression, EGFR L858R/T790M; assay type: cell-based; conditions: 72 hours after treatment, CellTiter-Glo
T7 construct: expressed in transfected cells; host or cells: Ba/F3
Description: as §1, §2, §3, §4

SMILES | GI50 [1] | GI50 [2] | % inhibition of scanMAX Kinase profiling ([3]; EGFR(E746-A750del)) | % inhibition of scanMAX Kinase profiling ([3]; EGFR(G719C)) | % inhibition of scanMAX Kinase profiling ([3]; EGFR(G719S)) | % inhibition of scanMAX Kinase profiling ([3]; EGFR(L747-E749del, A750P)) | % inhibition of scanMAX Kinase profiling ([3]; EGFR(L747-T751del.Sins)) | % inhibition of scanMAX Kinase profiling ([3]; EGFR(L858R)) | suppression activity against the EGFR mutant and ERBB2 and ERBB4 [3] | GI50 [4] | GI50 (H1975) | GI50 (PC9GR) | GI50 (PC9) | GI50 [5] | Ba/F3 (NPH) Activity [5] | GI50 [6] | GI50 (Ba/F3 cell naive) | GI50 (Ba/F3 cell EGFR L858R) | GI50 [7] | GI50 [8] | also measured
C=CC(=O)Nc1cc(Nc2cc(N3OCC[C@@H]3c3cc(F)cc(F)c3)ncn2)c(OC)cc1N1CCC(N2CCOCC2)CC1 [Example 30, N-(5-((6-((R)-3-(3,5-difluorophenyl)isoxazolidine-2-yl)pyrimidine-4-yl)amino)-4-methoxy-2-(4-morpholinopiperidine-1-yl)phenyl) acrylamide] | < 0.05 µM | < 0.05 µM | 95% | 100% | 100% | 100% | 96% | 100% | high suppression activity | < 0.05 µM | 1 nM | 6 nM | 1 nM | < 0.05 µM | A (GI50 < 50 nM) | < 0.05 µM | ≥ 5 µM | < 0.05 µM | < 0.05 µM | < 0.05 µM | % inhibition of scanMAX Kinase profiling ([3]; EGFR(L858R.T790M)): 97%; % inhibition of scanMAX Kinase profiling ([3]; EGFR(L861q)): 100%; % inhibition of scanMAX Kinase profiling ([3]; EGFR(S752-I759del)): 99%; % inhibition of scanMAX Kinase profiling ([3]; EGFR(T790M)): 100%; % inhibition of scanMAX Kinase profiling ([3]; ERBB2): 100%; % inhibition of scanMAX Kinase profiling ([3]; ERBB4): 100%
C=CC(=O)Nc1cc(Nc2cc(N3OCC[C@@H]3c3cc(F)cc(F)c3)ncn2)c(OC)cc1N1CCC(N2CCN(C3CC3)CC2)CC1 [Example 57] | < 0.05 µM | < 0.05 µM | 98% | 100% | 100% | 98% | 100% | 100% | high suppression activity | < 0.05 µM | 1 nM | 4 nM | 1 nM | < 0.05 µM | A (GI50 < 50 nM) | < 0.05 µM | ≥ 5 µM | < 0.05 µM | < 0.05 µM | < 0.05 µM | % inhibition of scanMAX Kinase profiling ([3]; EGFR(L858R.T790M)): 96%; % inhibition of scanMAX Kinase profiling ([3]; EGFR(L861q)): 100%; % inhibition of scanMAX Kinase profiling ([3]; EGFR(S752-I759del)): 98%; % inhibition of scanMAX Kinase profiling ([3]; EGFR(T790M)): 100%; % inhibition of scanMAX Kinase profiling ([3]; ERBB2): 100%; % inhibition of scanMAX Kinase profiling ([3]; ERBB4): 100%
C=CC(=O)Nc1cc(Nc2cc(N3OCC[C@@H]3c3cc(F)cc(F)c3)ncn2)c(OC)cc1N1CCC(N2CCN(C)CC2)CC1 [Example 26, N-(5-((6-((R)-3-(3,5-difluorophenyl)isoxazolidine-2-yl)pyrimidine-4-yl)amino)-4-methoxy-2-(4-(4-methylpiperazine-1-yl)piperidine-1-yl)phenyl)acrylamide] | – | < 0.05 µM | – | – | – | – | – | – | – | – | – | – | – | < 0.05 µM | A (GI50 < 50 nM) | – | ≥ 5 µM | – | < 0.05 µM | < 0.05 µM | –
C=CC(=O)Nc1cc(Nc2cc(N3OCC[C@@H]3c3cc(F)cc(F)c3)ncn2)c(OC)cc1N1CCC(N2C[C@H]3C[C@@H]2CO3)CC1 [Example 238, N-(2-(4-((1R,4R)-2-oxa-5-azabicyclo[2.2.1]heptane-5-yl)piperidine-1-yl)-5-((6-((R)-3-(3,5-difluorophenyl)isoxazolidine-2-yl)pyrimidine-4-yl)amino)-4-methoxyphenyl) acrylamide] | < 0.05 µM | < 0.05 µM | 100% | 100% | 100% | 91% | 92% | 99% | high suppression activity | < 0.05 µM | 1 nM | 4 nM | 1 nM | < 0.05 µM | A (GI50 < 50 nM) | < 0.05 µM | 0.5 to 5 µM | < 0.05 µM | < 0.05 µM | < 0.05 µM | % inhibition of scanMAX Kinase profiling ([3]; EGFR(L858R.T790M)): 98%; % inhibition of scanMAX Kinase profiling ([3]; EGFR(L861q)): 98%; % inhibition of scanMAX Kinase profiling ([3]; EGFR(S752-I759del)): 91%; % inhibition of scanMAX Kinase profiling ([3]; EGFR(T790M)): 100%; % inhibition of scanMAX Kinase profiling ([3]; ERBB2): 100%; % inhibition of scanMAX Kinase profiling ([3]; ERBB4): 100%
C=CC(=O)Nc1cc(Nc2cc(N3OCC[C@@H]3c3cc(F)cc(F)c3)ncn2)c(OC)cc1N1CCC(N2CCN(CC)CC2)CC1 [Example 236, N-(5-((6-((R)-3-(3,5-difluorophenyl)isoxazolidine-2-yl)pyrimidine-4-yl)amino)-2-(4-(4-ethylpiperazine-1-yl)piperidine-1-yl)-4-methoxyphenyl) acrylamide] | < 0.05 µM | < 0.05 µM | 89% | 100% | 100% | 98% | 100% | 100% | high suppression activity | < 0.05 µM | 1 nM | 7 nM | 1 nM | < 0.05 µM | A (GI50 < 50 nM) | < 0.05 µM | 0.5 to 5 µM | < 0.05 µM | < 0.05 µM | < 0.05 µM | % inhibition of scanMAX Kinase profiling ([3]; EGFR(L858R.T790M)): 98%; % inhibition of scanMAX Kinase profiling ([3]; EGFR(L861q)): 98%; % inhibition of scanMAX Kinase profiling ([3]; EGFR(S752-I759del)): 89%; % inhibition of scanMAX Kinase profiling ([3]; EGFR(T790M)): 100%; % inhibition of scanMAX Kinase profiling ([3]; ERBB2): 100%; % inhibition of scanMAX Kinase profiling ([3]; ERBB4): 100%
C=CC(=O)Nc1cc(Nc2cc(N3OCC[C@@H]3c3cc(F)cc(F)c3)ncn2)c(OC)cc1N1CC[C@@H](N(C)C)C1 [Example 242, N-(5-((6-((R)-3-(3,5-difluorophenyl)isoxazolidine-2-yl)pyrimidine-4-yl)amino)-2-((R)-3-(dimethylamino)pyrolidine-1-yl)-4-methoxyphenyl) acrylamide] | < 0.05 µM | < 0.05 µM | – | – | – | – | – | – | high suppression activity | < 0.05 µM | 4 nM | 23 nM | 1 nM | < 0.05 µM | A (GI50 < 50 nM) | 0.05 to 0.5 µM | 0.5 to 5 µM | < 0.05 µM | < 0.05 µM | < 0.05 µM | –

Reference: US12157730B2, “Heteroaryl derivative, method for producing same, and pharmaceutical composition comprising same as effective component” (VORONOI INC., priority 2019, dated 2024)
